According to the METLIN SMRT retention time set (Domingo-Almenara et al. 2019):

Test: gradient 5% acetonitrile 3 min, to 50% in 2 min, to 85% in 15 min, held 3 min, 100 µL/min
Settings: column: Zorbax Extend-C18 2.1 x 50 mm; eluents: water / acetonitrile, 0.1% formic acid
Method in brief: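 In both positive and negative ionization mode, a quadrupole time-of-flight mass spectrometer coupled to HPLC analyzed pure standards run in mixtures of ~100 molecules. The Zorbax Extend-C18 column (2.1 × 50 mm, 1.8 μm) was operated at 100 μL/min with water and acetonitrile, each containing 0.1% formic acid. The dead volume was 40 μL and the dwell volume 900 μL. Retention time came from adduct peaks that were computationally picked and individually inspected by hand.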

Structure (SMILES) | RP-LC retention time
CC(C)Cn1c(=O)c2cc(C(=O)NC(C)c3cccs3)nn2c2ccccc21 (stereo not drawn) | 1050 s
COC(=O)c1ccc2c(=O)n(Cc3ccc(OC)cc3)c(N3CCC(C(N)=O)CC3)nc2c1 | 744 s
CCC(=O)N1c2ccc(S(=O)(=O)N3CCCCC3)cc2CC1C(=O)NC1CC1 (stereo not drawn) | 758 s
O=C(c1ccsc1)N1CCN(C(=O)c2cc(-c3ccccn3)n[nH]2)CC1 | 614 s
COc1ccc(OC)c(S(=O)(=O)N2CC(=O)N(C3CCCC3)C3(CCCCC3)C2)c1 | 1090 s
Cc1cccc(-c2nc(C3CCN(S(=O)(=O)c4cccc(F)c4)CC3)no2)c1 | 1170 s
COc1ccccc1-c1noc(Cn2c(=O)n(-c3ccc(Cl)cc3)c(=O)c3sccc32)n1 | 950 s
COCCC1CCN(C(=O)c2ccc3nc[nH]c3c2)CC1 | 572 s
O=C(Cn1cnc2c(sc3nc(-c4ccccc4)ccc32)c1=O)Nc1ccc(F)cc1F | 999 s
Cc1ccc(S(=O)(=O)Nc2cc(C(=O)O)ccc2N2CCN(c3ccccn3)CC2)cc1 | 673 s
COc1ccc(C2(C(=O)N3C[C@@H](CO)[C@H](c4nc(C)no4)C3)CC2)cc1 | 665 s
CC(C)C(=O)Nc1nnc(SCc2nnc(-c3ccc4c(c3)OCO4)o2)s1 | 773 s
CCOC(=O)c1cc(C)nc2c1c(=O)n(Cc1cccc(F)c1)c(=O)n2C | 1010 s
Cc1ccc(C(=O)N2CCC(C(=O)N3CCCCCCNC(=O)CC3)CC2)s1 | 668 s
CCc1ccc(-c2cc3c(=O)n(CC(=O)NCCCN4CCCC4=O)nc(C)n3n2)cc1 | 812 s
Cc1ccc(S(=O)(=O)NC(=O)NN2CCCCCC2)cc1 | 914 s
Cc1ccc(N2CC(c3noc(-c4cc(C)cc(C)c4)n3)CC2=O)cc1 (stereo not drawn) | 1200 s
Cc1cc(C)cc(NC(=O)Nc2nccn(-c3ccc4c(c3)CCC4)c2=O)c1 | 1210 s
O=C(Nc1ccc(N2CCOCC2)cc1)c1cc2ccccc2o1 | 757 s
CCC(C)NC(=O)c1n[nH]c2c1CCCC2 (stereo not drawn) | 718 s
CC(Sc1nnnn1-c1ccccc1)C(=O)Nc1ccc(N2CCN(C)CC2)cc1 (stereo not drawn) | 580 s
O=c1n(Cc2ccc(F)cc2Cl)nc2ccc(S(=O)(=O)N3CCOCC3)cn12 | 863 s

Structure (SMILES) | RP-LC retention time
CCCC(=O)Nc1ccc2c(c1)CN(C(=O)c1ccc(C)cc1C)C(C(=O)N(C)C)C2 (stereo not drawn) | 760 s
CCNC(=O)c1ccc2c(c1)n(Cc1ccccc1)c(=O)c1ccnn12 | 774 s
CCc1ccccc1NC(=O)N1CCC(N(CCC(C)C)C2CCOCC2)CC1 | 665 s
Cc1[nH]c(C(=O)N2CCC(CC(=O)NC3CCCCCC3)CC2)c(C)c1C(=O)OC(C)C | 886 s
COCCNC(=O)c1csc(N2CCN(c3ccc(Cl)cc3)CC2)n1 | 972 s
COc1ccc(C(=O)N2C[C@@H](Oc3cccnc3)C[C@H]2C(=O)NC2CC2)cn1 | 562 s
CCOc1ccccc1NC(=O)N1CCC2(C1)C(=O)N(C)c1ccccc12 (stereo not drawn) | 902 s
COc1nc2ccccc2nc1N1CCCC(C(=O)Nc2ccc(F)cc2F)C1 (stereo not drawn) | 1170 s
CCS(=O)(=O)N1CC(=O)N(c2ccccc2C)C(C)(C(=O)NC2CCCCCCC2)C1 (stereo not drawn) | 951 s
CCNC(=O)N1CC=C(C(=O)Nc2ccc(C)cc2)CC1 | 798 s
Cc1ccc(Nc2c(-c3ccc(O)cc3)nc3ncccn23)cc1Cl | 690 s
Cc1ccc(CNC(=O)Cn2c(=O)c(CCC(=O)NCC(C)C)nc3ccccc32)cc1 | 814 s
O=C1Nc2ccccc2SC1C(=O)N1CCC(C(=O)N2CCN(c3ccccc3F)CC2)CC1 (stereo not drawn) | 784 s
CCc1cccc(NC(=O)c2c(C)oc3c2C2=NC(CC)CN2C=N3)c1 (stereo not drawn) | 698 s
COc1ccc(C(=O)Nc2cnn(C)c(=O)c2N2CCOCC2)cc1OC | 684 s
Cc1ccc(C)c(-c2coc(-c3ccc(NC(=O)C(C)(C)C)cc3)n2)c1 | 1280 s
Cc1cc(C)c(NC(=O)/C=C/c2ccccc2)c(C)c1 | 898 s
O=C(Nc1ccc(Cl)cc1F)N1CCc2nc[nH]c2C1 | 584 s
CN1C(=O)[C@H]2CN(Cc3ccccc3)C[C@H]2C1=O | 546 s
CCCNC(=O)C1CCN(c2ccc(SCC(=O)Nc3ccc(C)c(F)c3)nn2)CC1 | 679 s
O=C(c1ccc(F)cc1)N1CCN(c2ccc(=O)n(-c3cccc(Cl)c3)n2)CC1 | 869 s
O=C(NCCOc1ccc(F)cc1)c1ccc(S(=O)(=O)N2CCCC2)cc1 | 813 s

Structure (SMILES) | RP-LC retention time
Cc1ccc(C(C)NC(=O)C2CCN(c3nccnc3Oc3ccccc3)CC2)c(C)c1 (stereo not drawn) | 1090 s
Cc1ccc(CNC(=O)c2cc(-c3ccncc3)cn2Cc2ccccc2C)o1 | 749 s
COc1ccc(NC(=O)c2ccc(-n3cnc(NC(=O)C4CC4)c3)cc2)c(OC)c1 | 726 s
Cc1ccc(S(=O)(=O)N2C[C@@H](F)C[C@H]2C(=O)N2CCc3ccccc3C2)c(C)c1 | 992 s
COc1ccc(OC)c(NC(=O)c2cn3c(n2)CSCC3)c1 | 767 s
O=C(Cc1ccc(F)cc1)Nc1ccccc1NC(=O)c1cccc(Cl)c1 | 897 s
COc1ccc(-n2c(=O)c(C(=O)Nc3cc(F)cc(F)c3)c(O)c3cccnc32)cc1 | 1300 s
CC(O)(CS(=O)(=O)c1ccc(F)cc1)C(=O)Nc1ccc(C#N)c(C(F)(F)F)c1 (stereo not drawn) | 992 s
O=C(Nc1cc(F)cc(F)c1)N1CCC(CCNC(=O)C2(c3ccccc3)CC2)CC1 | 984 s
CCNC(=O)c1c(-c2cccc(F)c2)noc1C | 797 s
COCc1nnc(C(=O)Nc2ccc(C(=O)NCCc3c[nH]c4ccc(Cl)cc34)cc2)s1 | 893 s
O=C(CN1C(=O)NC2(CCCCC2)C1=O)Nc1ccc2c(c1)OCCO2 | 708 s
CCn1cc2c(n1)c(=O)n(Cc1ccccc1)c(=O)n2CC(=O)NCc1ccccc1 | 819 s
Clc1ccc(-c2nc3ccccn3c2Nc2ccc3c(c2)OCO3)cc1 | 727 s
CCc1ccc(C2=C(C)C(N3CCC(NC(=O)NC(C)C)CC3)=NS2(=O)=O)cc1 | 596 s
COc1ccc(-c2nc(C)cc(C)c2CNS(=O)(=O)c2ccccc2C)cc1 | 658 s
CCCn1ncc(N2CCC(C(=O)NCCc3cccs3)CC2)cc1=O | 714 s
COc1ccc(-c2noc(Cc3nnc(-c4cccc(F)c4)o3)n2)cc1F | 1000 s
NS(=O)(=O)c1ccc(NC(=O)c2cnc3ccccn3c2=O)cc1 | 610 s
O=C(Nc1ncccn1)c1ccc(Cl)c(S(=O)(=O)N2CCOCC2)c1 | 611 s
Cc1ccccc1-c1cn2ccn(-c3ccc4c(c3)CCC4)c(=O)c2n1 | 962 s
Cc1ccc(Cn2c(N3CCCC(C(=O)NCC4CC4)C3)nc3ccsc3c2=O)cc1 (stereo not drawn) | 894 s

Structure (SMILES) | RP-LC retention time
COc1ccc(CCC(=O)Nc2nc(-c3cccc(Br)c3)cs2)cc1 | 1150 s
CCN(C(=O)c1ccco1)c1nc(-c2ccc(C)cc2)cs1 | 1280 s
O=C(c1nnc(-c2ccc(S(=O)(=O)N3CCCCC3)cc2)o1)N1CCN(c2ccccc2)CC1 | 1080 s
CCC(c1ccccc1)c1nc(-c2ccc3nnn(C)c3c2)no1 (stereo not drawn) | 1100 s
O=C(CSc1ccc(N2CCCC(C(=O)NC3CC3)C2)nn1)Nc1ccccc1F (stereo not drawn) | 643 s
COc1ccccc1C1(CNC(=O)NC2CCCCC2)CCOCC1 | 771 s
O=C1Nc2ccccc2SC1C(=O)N1CCC(C(=O)N2CCN(C3CCCCC3)CC2)CC1 (stereo not drawn) | 590 s
COCCOC1CCC12CCN(C(=O)c1conc1C)CC2 (stereo not drawn) | 706 s
Cn1ccnc1SCC(=O)Nc1nc(-c2ccc(Cl)cc2)cs1 | 690 s
CCn1cc(C(=O)N[C@@H](C)C(=O)O)c(=O)c2cc3c(cc21)OCO3 | 631 s
Cc1ccccc1NS(=O)(=O)c1cccc(-c2nc(-c3ccccc3)no2)c1 | 1160 s
Cc1nc(C)c(-c2cc(C(=O)N3CCN(c4ccc(F)cc4)CC3)n[nH]2)s1 | 690 s
O=C(CSc1ccc(N2CCCC(C(=O)NC3CC3)C2)nn1)Nc1ccc2c(c1)OCO2 (stereo not drawn) | 612 s
O=C(Cn1ncc2c(N3CCN(c4ccccn4)CC3)ncnc21)Nc1cccc(Br)c1 | 648 s
C[C@@H](NC(=O)c1ccc(F)cc1)C(=O)NCc1cscn1 | 627 s
COCc1nc2cccnc2n1C1CCN(C(=O)Nc2cc(C)ccc2C)CC1 | 710 s
Cc1noc(C)c1-c1ccc(S(=O)(=O)Nc2ccccc2F)cc1 | 881 s
CCn1cc(-c2nc(CC(=O)N3CCN(c4ccccc4F)CC3)cs2)c2cccnc21 | 976 s
Cc1cccc(N2CCN(c3cc(C)nc4c(-c5ccccc5)cnn34)CC2)n1 | 738 s
CCOc1ccc(-c2nc(C3CC(=O)N(c4ccc(OC)cc4)C3)no2)cc1 (stereo not drawn) | 1010 s
Cc1ccc(F)c(NS(=O)(=O)c2cn(CC(C)C)c3ncccc23)c1 | 932 s
CCN1C(=O)c2cccnc2Sc2cc(C(=O)NCc3ccc(F)cc3)ccc21 | 805 s
